Experimental data: ChEMBL document CHEMBL4800730 (2021)
Activity calls are given as the source filed them. The rule behind the calls is not given here.

Legend:
[1] = GPCRScan assay: inhibition of GABA/PBR; design: species or system Rattus norvegicus; radioligand conc. used [nm] 0.3 – 2.0, parental cells brain tissue
[2] = NanoBRET assay (AKT1); conditions: Homo sapiens
[3] = molecular target: AMP-activated protein kinase (AMPK) alpha-1/beta-1/gamma-1 (Homo sapiens) (UniProt P54619+Q9Y478+Q13131); assay: AMPK A1/B1/G1 SelectScreen Kinase panel (LifeTechnologies); assay type: protein-complex assay; conditions: Compound concentration 1.0 uM
[4] = molecular target: Aurora kinase A (Homo sapiens) (UniProt O14965); assay: AURKA (Aurora A) SelectScreen Kinase panel (LifeTechnologies); conditions: Compound concentration 1.0 uM
[5] = molecular target: Serine/threonine-protein kinase MRCK alpha (Homo sapiens) (UniProt Q5VT25); assay: CDC42 BPA (MRCKA) SelectScreen Kinase panel (LifeTechnologies); conditions: Compound concentration 1.0 uM
[6] = molecular target: Cyclin-dependent kinase 1/cyclin B (Homo sapiens) (UniProt P06493+P14635+Q8WWL7+O95067); assay: CDK1/cyclin B SelectScreen Kinase panel (LifeTechnologies); assay type: protein-complex assay; conditions: Compound concentration 1.0 uM
[7] = molecular target: Cyclin-dependent kinase 2/cyclin A (Homo sapiens) (UniProt P24941+P20248+P78396); assay: CDK2/cyclin A SelectScreen Kinase panel (LifeTechnologies); assay type: protein-complex assay; conditions: Compound concentration 1.0 uM
[8] = molecular target: Serine/threonine-protein kinase Chk1 (Homo sapiens) (UniProt O14757); assay: CHEK1 (CHK1) SelectScreen Kinase panel (LifeTechnologies); conditions: Compound concentration 1.0 uM
[9] = molecular target: Fibroblast growth factor receptor 1 (Homo sapiens) (UniProt P11362); assay: FGFR1 SelectScreen Kinase panel (LifeTechnologies); conditions: Compound concentration 1.0 uM
[10] = molecular target: G protein-coupled receptor kinase 5 (Homo sapiens) (UniProt P34947); assay: GRK5 SelectScreen Kinase panel (LifeTechnologies); conditions: Compound concentration 1.0 uM
[11] = molecular target: G protein-coupled receptor kinase 6 (Homo sapiens) (UniProt P43250); assay: GRK6 SelectScreen Kinase panel (LifeTechnologies); conditions: Compound concentration 1.0 uM
[12] = molecular target: Tyrosine-protein kinase JAK2 (Homo sapiens) (UniProt O60674); assay: JAK2 SelectScreen Kinase panel (LifeTechnologies); conditions: Compound concentration 1.0 uM
[13] = molecular target: Mast/stem cell growth factor receptor Kit (Homo sapiens) (UniProt P10721); assay: KIT SelectScreen Kinase panel (LifeTechnologies); conditions: Compound concentration 1.0 uM
[14] = molecular target: Tyrosine-protein kinase Lck (Homo sapiens) (UniProt P06239); assay: LCK SelectScreen Kinase panel (LifeTechnologies); conditions: Compound concentration 1.0 uM
[15] = molecular target: Mitogen-activated protein kinase 1 (Homo sapiens) (UniProt P28482); assay: MAPK1 (ERK2) SelectScreen Kinase panel (LifeTechnologies); conditions: Compound concentration 1.0 uM
[16] = molecular target: Mitogen-activated protein kinase 3 (Homo sapiens) (UniProt P27361); assay: MAPK3 (ERK1) SelectScreen Kinase panel (LifeTechnologies); conditions: Compound concentration 1.0 uM
[17] = molecular target: Serine/threonine-protein kinase MARK1 (Homo sapiens) (UniProt Q9P0L2); assay: MARK1 (MARK) SelectScreen Kinase panel (LifeTechnologies); conditions: Compound concentration 1.0 uM
[18] = molecular target: Serine/threonine-protein kinase PAK 4 (Homo sapiens) (UniProt O96013); assay: PAK4 SelectScreen Kinase panel (LifeTechnologies); conditions: Compound concentration 1.0 uM
[19] = molecular target: cAMP-dependent protein kinase catalytic subunit alpha (Homo sapiens) (UniProt P17612); assay: PRKACA (PKA) SelectScreen Kinase panel (LifeTechnologies); conditions: Compound concentration 1.0 uM
[20] = molecular target: Protein kinase C alpha type (Homo sapiens) (UniProt P17252); assay: PRKCA (PKC alpha) SelectScreen Kinase panel (LifeTechnologies); conditions: Compound concentration 1.0 uM
[21] = molecular target: Protein kinase C epsilon type (Homo sapiens) (UniProt Q02156); assay: PRKCE (PKC epsilon) SelectScreen Kinase panel (LifeTechnologies); conditions: Compound concentration 1.0 uM
[22] = molecular target: Serine/threonine-protein kinase D3 (Homo sapiens) (UniProt O94806); assay: PRKCN (PKD3) SelectScreen Kinase panel (LifeTechnologies); conditions: Compound concentration 1.0 uM
Chain of Serine/threonine-protein kinase D3 (Homo sapiens) (O94806 whole entry): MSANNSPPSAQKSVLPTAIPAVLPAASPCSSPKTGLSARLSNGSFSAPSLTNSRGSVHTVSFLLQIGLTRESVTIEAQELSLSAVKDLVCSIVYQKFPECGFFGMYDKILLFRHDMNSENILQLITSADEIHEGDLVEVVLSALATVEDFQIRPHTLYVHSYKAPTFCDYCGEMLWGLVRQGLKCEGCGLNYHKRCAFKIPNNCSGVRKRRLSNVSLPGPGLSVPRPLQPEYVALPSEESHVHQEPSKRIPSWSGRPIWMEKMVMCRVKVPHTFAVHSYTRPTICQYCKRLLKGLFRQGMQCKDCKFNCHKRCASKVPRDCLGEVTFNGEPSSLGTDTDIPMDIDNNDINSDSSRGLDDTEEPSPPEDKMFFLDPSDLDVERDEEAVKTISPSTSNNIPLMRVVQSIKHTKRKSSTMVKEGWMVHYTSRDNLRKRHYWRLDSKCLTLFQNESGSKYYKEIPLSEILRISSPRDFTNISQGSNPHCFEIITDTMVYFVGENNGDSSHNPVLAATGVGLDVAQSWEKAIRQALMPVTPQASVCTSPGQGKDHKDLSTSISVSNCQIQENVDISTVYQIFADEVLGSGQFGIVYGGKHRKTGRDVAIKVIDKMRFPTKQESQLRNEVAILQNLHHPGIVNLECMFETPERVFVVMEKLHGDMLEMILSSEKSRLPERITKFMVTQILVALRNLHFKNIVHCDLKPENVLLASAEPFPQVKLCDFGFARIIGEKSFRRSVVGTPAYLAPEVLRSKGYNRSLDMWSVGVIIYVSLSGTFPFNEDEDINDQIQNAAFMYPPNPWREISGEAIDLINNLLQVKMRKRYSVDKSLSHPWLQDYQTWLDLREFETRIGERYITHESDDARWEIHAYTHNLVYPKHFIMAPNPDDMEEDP

[23] = molecular target: Protein kinase C zeta type (Homo sapiens) (UniProt Q05513); assay: PRKCZ (PKC zeta) SelectScreen Kinase panel (LifeTechnologies); conditions: Compound concentration 1.0 uM
Chain of Protein kinase C zeta type (Homo sapiens) (Q05513 whole entry): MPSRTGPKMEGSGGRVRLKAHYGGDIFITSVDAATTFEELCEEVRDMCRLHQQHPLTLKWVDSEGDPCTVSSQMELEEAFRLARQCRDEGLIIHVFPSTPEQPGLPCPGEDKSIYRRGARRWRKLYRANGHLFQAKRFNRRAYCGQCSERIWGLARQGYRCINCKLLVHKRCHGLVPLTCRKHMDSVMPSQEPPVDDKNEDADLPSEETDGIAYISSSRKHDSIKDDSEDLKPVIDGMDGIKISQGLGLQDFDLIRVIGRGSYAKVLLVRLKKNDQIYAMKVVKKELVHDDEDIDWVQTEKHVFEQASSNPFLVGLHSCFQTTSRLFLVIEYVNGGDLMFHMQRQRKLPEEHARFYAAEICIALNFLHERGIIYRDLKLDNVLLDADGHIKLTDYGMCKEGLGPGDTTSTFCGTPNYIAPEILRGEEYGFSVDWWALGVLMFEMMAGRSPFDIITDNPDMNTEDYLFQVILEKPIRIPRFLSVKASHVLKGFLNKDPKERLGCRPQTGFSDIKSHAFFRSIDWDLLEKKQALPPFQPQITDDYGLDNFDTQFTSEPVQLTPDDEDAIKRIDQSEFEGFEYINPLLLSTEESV

[24] = molecular target: Serine/threonine-protein kinase D2 (Homo sapiens) (UniProt Q9BZL6); assay: PRKD2 (PKD2) SelectScreen Kinase panel (LifeTechnologies); conditions: Compound concentration 1.0 uM
[25] = molecular target: cGMP-dependent protein kinase 2 (Homo sapiens) (UniProt Q13237); assay: PRKG2 (PKG2) SelectScreen Kinase panel (LifeTechnologies); conditions: Compound concentration 1.0 uM
[26] = molecular target: Rho-associated protein kinase 2 (Homo sapiens) (UniProt O75116); assay: ROCK2 SelectScreen Kinase panel (LifeTechnologies); conditions: Compound concentration 1.0 uM
[27] = molecular target: Ribosomal protein S6 kinase alpha-1 (Homo sapiens) (UniProt Q15418); assay: RPS6KA1 (RSK1) SelectScreen Kinase panel (LifeTechnologies); conditions: Compound concentration 1.0 uM
Chain of Ribosomal protein S6 kinase alpha-1 (Homo sapiens) (Q15418 whole entry): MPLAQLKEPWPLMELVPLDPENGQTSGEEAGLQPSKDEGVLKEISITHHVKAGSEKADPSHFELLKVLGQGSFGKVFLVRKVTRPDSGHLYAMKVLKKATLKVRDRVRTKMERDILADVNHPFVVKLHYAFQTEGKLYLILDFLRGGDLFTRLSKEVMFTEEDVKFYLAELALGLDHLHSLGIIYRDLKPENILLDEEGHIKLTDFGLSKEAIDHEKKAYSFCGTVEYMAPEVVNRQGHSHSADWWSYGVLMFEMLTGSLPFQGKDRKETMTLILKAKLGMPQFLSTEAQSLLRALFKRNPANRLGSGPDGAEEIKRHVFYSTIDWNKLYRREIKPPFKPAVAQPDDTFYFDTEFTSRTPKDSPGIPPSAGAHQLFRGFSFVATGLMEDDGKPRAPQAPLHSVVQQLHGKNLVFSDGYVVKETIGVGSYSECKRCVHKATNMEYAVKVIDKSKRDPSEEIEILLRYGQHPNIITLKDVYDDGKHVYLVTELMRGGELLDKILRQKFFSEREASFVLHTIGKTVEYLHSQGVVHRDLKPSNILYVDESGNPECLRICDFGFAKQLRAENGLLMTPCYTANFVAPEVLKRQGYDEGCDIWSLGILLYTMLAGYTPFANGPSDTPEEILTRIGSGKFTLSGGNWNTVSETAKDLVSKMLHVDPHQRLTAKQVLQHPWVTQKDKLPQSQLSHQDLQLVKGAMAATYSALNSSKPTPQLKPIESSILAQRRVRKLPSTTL

[28] = molecular target: Ribosomal protein S6 kinase alpha-3 (Homo sapiens) (UniProt P51812); assay: RPS6KA3 (RSK2) SelectScreen Kinase panel (LifeTechnologies); conditions: Compound concentration 1.0 uM
[29] = molecular target: Ribosomal protein S6 kinase alpha-5 (Homo sapiens) (UniProt O75582); assay: RPS6KA5 (MSK1) SelectScreen Kinase panel (LifeTechnologies); conditions: Compound concentration 1.0 uM
[30] = molecular target: Ribosomal protein S6 kinase beta-1 (Homo sapiens) (UniProt P23443); assay: RPS6KB1 (p70S6K) SelectScreen Kinase panel (LifeTechnologies); conditions: Compound concentration 1.0 uM
[31] = molecular target: Serine/threonine-protein kinase Sgk2 (Homo sapiens) (UniProt Q9HBY8); assay: SGK2 SelectScreen Kinase panel (LifeTechnologies); conditions: Compound concentration 1.0 uM
[32] = molecular target: Serine/threonine-protein kinase 3 (Homo sapiens) (UniProt Q13188); assay: STK3 (MST2) SelectScreen Kinase panel (LifeTechnologies); conditions: Compound concentration 1.0 uM
[33] = molecular target: 5-hydroxytryptamine receptor 1A (Homo sapiens) (UniProt P08908); conditions: Compound concentration 10.0 uM
[34] = molecular target: 5-hydroxytryptamine receptor 1D (Homo sapiens) (UniProt P28221); conditions: Compound concentration 10.0 uM
[35] = molecular target: 5-hydroxytryptamine receptor 2C (Homo sapiens) (UniProt P28335); conditions: Compound concentration 10.0 uM
[36] = molecular target: Sodium-dependent dopamine transporter (Homo sapiens, UniProt Q01959); conditions: Compound concentration 10.0 uM
[37] = molecular target: Histamine H3 receptor (Homo sapiens) (UniProt Q9Y5N1); conditions: Compound concentration 10.0 uM
Chain of Histamine H3 receptor (Homo sapiens) (Q9Y5N1 whole entry): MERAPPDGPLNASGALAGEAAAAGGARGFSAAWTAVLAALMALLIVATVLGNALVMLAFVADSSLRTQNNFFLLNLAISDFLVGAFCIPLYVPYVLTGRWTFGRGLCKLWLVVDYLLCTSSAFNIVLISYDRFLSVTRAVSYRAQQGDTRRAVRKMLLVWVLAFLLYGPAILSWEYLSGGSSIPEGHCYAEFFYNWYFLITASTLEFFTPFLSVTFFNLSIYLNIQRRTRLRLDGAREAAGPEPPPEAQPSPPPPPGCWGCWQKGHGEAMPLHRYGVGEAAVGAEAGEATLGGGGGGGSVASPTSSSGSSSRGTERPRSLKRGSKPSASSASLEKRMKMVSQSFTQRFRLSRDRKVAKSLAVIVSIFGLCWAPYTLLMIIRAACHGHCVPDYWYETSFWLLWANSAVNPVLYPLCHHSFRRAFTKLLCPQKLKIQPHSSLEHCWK

[38] = molecular target: Histamine H4 receptor (Homo sapiens) (UniProt Q9H3N8); conditions: Compound concentration 10.0 uM
[39] = molecular target: Alpha-2C adrenergic receptor (Homo sapiens) (UniProt P18825); conditions: Compound concentration 10.0 uM
[40] = molecular target: Beta-1 adrenergic receptor (Homo sapiens) (UniProt P08588); conditions: Compound concentration 10.0 uM
Chain of Beta-1 adrenergic receptor (Homo sapiens) (P08588 whole entry, looked up): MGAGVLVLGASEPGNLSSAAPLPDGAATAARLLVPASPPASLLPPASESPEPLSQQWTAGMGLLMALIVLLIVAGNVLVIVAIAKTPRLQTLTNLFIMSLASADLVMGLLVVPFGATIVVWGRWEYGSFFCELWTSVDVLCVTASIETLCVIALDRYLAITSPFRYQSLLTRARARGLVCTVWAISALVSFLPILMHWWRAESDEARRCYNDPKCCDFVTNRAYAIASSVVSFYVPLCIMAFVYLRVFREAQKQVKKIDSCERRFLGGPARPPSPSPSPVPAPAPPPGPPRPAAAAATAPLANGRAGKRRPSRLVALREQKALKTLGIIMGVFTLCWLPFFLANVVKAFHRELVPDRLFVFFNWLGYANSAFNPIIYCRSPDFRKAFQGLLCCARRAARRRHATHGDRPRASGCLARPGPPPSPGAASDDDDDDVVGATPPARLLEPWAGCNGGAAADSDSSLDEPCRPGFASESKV

[41] = molecular target: Muscarinic acetylcholine receptor M1 (Homo sapiens) (UniProt P11229); conditions: Compound concentration 10.0 uM
[42] = molecular target: Muscarinic acetylcholine receptor M3 (Homo sapiens) (UniProt P20309); conditions: Compound concentration 10.0 uM
Chain of Muscarinic acetylcholine receptor M3 (Homo sapiens) (P20309 whole entry, looked up): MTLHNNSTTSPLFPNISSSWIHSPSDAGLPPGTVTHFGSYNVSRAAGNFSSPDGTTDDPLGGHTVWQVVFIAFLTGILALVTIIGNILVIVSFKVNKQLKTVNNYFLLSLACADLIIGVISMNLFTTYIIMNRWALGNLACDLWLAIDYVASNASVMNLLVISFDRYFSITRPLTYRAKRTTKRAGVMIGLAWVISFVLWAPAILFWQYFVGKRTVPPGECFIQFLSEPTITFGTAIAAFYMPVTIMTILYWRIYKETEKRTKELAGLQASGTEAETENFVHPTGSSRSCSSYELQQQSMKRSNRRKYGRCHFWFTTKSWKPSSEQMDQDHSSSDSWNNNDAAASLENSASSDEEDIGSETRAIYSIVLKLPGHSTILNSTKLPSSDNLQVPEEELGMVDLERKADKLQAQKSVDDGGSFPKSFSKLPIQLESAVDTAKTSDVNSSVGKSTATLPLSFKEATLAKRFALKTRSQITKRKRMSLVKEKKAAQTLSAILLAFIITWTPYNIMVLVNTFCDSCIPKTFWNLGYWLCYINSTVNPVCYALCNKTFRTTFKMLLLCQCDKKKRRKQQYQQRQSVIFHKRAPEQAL

[43] = molecular target: Muscarinic acetylcholine receptor M4 (Homo sapiens) (UniProt P08173); conditions: Compound concentration 10.0 uM
Chain of Muscarinic acetylcholine receptor M4 (Homo sapiens) (P08173 whole entry): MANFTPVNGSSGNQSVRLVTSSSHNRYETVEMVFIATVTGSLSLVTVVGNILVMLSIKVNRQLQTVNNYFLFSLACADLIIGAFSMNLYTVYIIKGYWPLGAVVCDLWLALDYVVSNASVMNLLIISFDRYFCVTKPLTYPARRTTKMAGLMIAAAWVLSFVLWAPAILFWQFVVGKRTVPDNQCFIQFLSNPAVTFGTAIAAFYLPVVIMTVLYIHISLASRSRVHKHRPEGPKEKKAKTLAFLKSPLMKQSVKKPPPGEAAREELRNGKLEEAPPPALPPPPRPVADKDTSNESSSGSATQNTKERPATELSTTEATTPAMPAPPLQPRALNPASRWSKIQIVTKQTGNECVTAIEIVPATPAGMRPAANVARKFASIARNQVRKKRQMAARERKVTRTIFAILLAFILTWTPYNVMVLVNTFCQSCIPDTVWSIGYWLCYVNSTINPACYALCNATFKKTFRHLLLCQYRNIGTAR

[44] = molecular target: Muscarinic acetylcholine receptor M5 (Homo sapiens) (UniProt P08912); conditions: Compound concentration 10.0 uM

C=CC(=O)Nc1ccc2[nH]c(=O)n(C3CCN(Cc4ccc(-c5nc6cc[nH]c(=O)c6cc5-c5ccccc5)cc4)CC3)c2c1 [Borussertib]
Ki [1]: 57.3 nM
pKi [1]: 7.24
EC50 [2]: 26 nM (active)
IC50 [2]: 21 nM (active)
inhibition [3]: 14%
inhibition [4]: 15%
inhibition [5]: 2%
inhibition [6]: 3%
inhibition [7]: 1%
inhibition [8]: -4%
inhibition [9]: 25%
inhibition [10]: -2%
inhibition [11]: 2%
inhibition [12]: -8%
inhibition [13]: 8%
inhibition [14]: 8%
inhibition [15]: 3%
inhibition [16]: -3%
inhibition [17]: -7%
inhibition [18]: 7%
inhibition [19]: -3%
inhibition [20]: 10%
inhibition [21]: -1%
inhibition [22]: 14%
inhibition [23]: -1%
inhibition [24]: 5%
inhibition [25]: 2%
inhibition [26]: -3%
inhibition [27]: 12%
inhibition [28]: 21%
inhibition [29]: 2%
inhibition [30]: 2%
inhibition [31]: 6%
inhibition [32]: 1%
inhibition [33]: 15%
inhibition [34]: 12.1%
inhibition [35]: -8.03%
inhibition [36]: 59.7%
inhibition [37]: 6.51%
inhibition [38]: 31.3%
inhibition [39]: -7.2%
inhibition [40]: -0.86%
inhibition [41]: -8.04%
inhibition [42]: 5.83%
inhibition [43]: -7.81%
inhibition [44]: 11.8%
